Several values for one entry are separate records, joined by “and”; a condition that tells them apart may be missing. Identical values can stand only once.
What was measured:
urease [1] = experiment: Volatilization of urea from garden soil treated with urea containing PTA (Example 2); details: garden soil 1500 g, urea containing 0.1 wt % PTA (as third precipitate, at least 75% PTA), after four days, mass percent; control without PTA 15.4%
Procedure: Three 1500 g samples of garden soil were prepared, placed in airtight containers. One sample was treated with urea containing no PTA, and two samples with urea containing 0.1 wt % PTA. The amount of urea was the same for each sample. The PTA was the “third precipitate” within the meaning of the object of the present invention. It contained at least 75% by weight of PTA; the indication “0.1% by mass of PTA” refers here to the total mass of the third precipitate and not to the pure PTA which it contains.
Each soil sample was treated with 250 g of water before depositing the urea samples treated or not with PTA on the surface. The volatilization of urea was determined after four days, expressed in mass percent. For this, a current of air was conveyed above each sample using a membrane pump, and this air was led through a citric acid solution which fixes the ammonia by transforming it into ammonium. The citric acid solution was then titrated with a sodium hydroxide solution to calculate the amount of ammonia that had reacted with the citric acid solution. From the quantity of ammonia, the quantity of urea having generated it is calculated.
In this test, the earth was taken from a single location, and the containers were stored side by side in the same room. It can therefore be assumed that each batch was exposed to the same experimental conditions.

urease [2] = experiment: Rate of urea volatilization from agricultural earth treated with urea fertilizer containing PTA (Examples 4 and 5); details: after four days; for rate of urea volatilization: control 45.81%
Procedure: Three identical samples of agricultural earth were supplied. A first sample of this earth was treated with a urea fertilizer containing 0.2% by weight of the third precipitate. This precipitate contained at least 75% by weight of PTA; the indication “0.2% by mass of PTA” refers here to the total mass of the third precipitate and not to the pure PTA which it contains. A second sample of this earth was treated with the same quantity of the same fertilizer comprising 0.2% by mass of TPTA (in the sense indicated above for PTA). The third earth sample was treated with the same amount of the same fertilizer containing no urease inhibitor. The rate of urea volatilization was determined after four days of exposure:
Following the test described in Example 4, the dose effect of the PTA was determined by treating identical agricultural earth samples with a urea fertilizer comprising 0.05%, 0.1% and 0.2% by mass of PTA (in the sense indicated above: quantity of third precipitate).

## NP(N)(N)=O [PTA, phosphoryl triamide]
Urease [1]
  volatilization of urea: 1.5% and 3.05%
Urease [2]; 0.2% by mass of PTA, versus control
  volatilization of urea is reduced by: approximately 75%
Urease [2]; urea fertilizer with 0.05% by mass of PTA (quantity of third precipitate)
  rate of urea volatilization: 34.19%
Urease [2]; urea fertilizer with 0.1% by mass of PTA (quantity of third precipitate)
  rate of urea volatilization: 29.56%
Urease [2]; urea fertilizer, printed as 0.02% PTA (quantity of third precipitate)
  rate of urea volatilization: 11.55%

— patent US20240351960A1, “METHOD FOR PRODUCING […] THIO[…], AND USE OF COMPOUND IN NITROGEN FERTILIZER FORMULATIONS” (NOVAEM BBTRADE, priority 2021, published 2024)
